Reference: BindingDB's records for doi:10.7270/Q28G8J4C (Broad Institute, 2009)

biological target: T1, POsterior Segregation (Caenorhabditis elegans, UniProt G5EF15); experiment: inhibitors of POS-1/mex-3 RNA binding, dose response, biochemical, fluorescence polarization (AID 1964)
T1 sequence (G5EF15 whole entry): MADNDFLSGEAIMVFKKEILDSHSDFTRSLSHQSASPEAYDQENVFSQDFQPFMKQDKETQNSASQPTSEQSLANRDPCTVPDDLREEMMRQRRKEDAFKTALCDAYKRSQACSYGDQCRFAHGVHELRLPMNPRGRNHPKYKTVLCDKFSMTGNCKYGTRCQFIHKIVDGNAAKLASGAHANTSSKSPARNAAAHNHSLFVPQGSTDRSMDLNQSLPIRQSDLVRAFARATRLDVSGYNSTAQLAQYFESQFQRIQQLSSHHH

Question: With `Cc1nnc(SC(=Cc2ccc(OCc3ccc(C(=O)O)cc3)cc2)C(=O)O)[nH]1` [4-[[4-[(E)-2-[(5-methyl-1H-1,2,4-triazol-3-yl)sulfanyl]-3-oxidanyl-3-oxidanylidene-prop-1-enyl]phenoxy]methyl]benzoic acid] as the molecule, how does the EC50 read?
Answer: 17.8 µM

Question: With `CCCCOc1c(Br)cc(CN=O)cc1OCC` [3-bromo-4-butoxy-5-ethoxy-benzaldoxime] as the molecule, how does the EC50 read?
Answer: > 300 µM

Question: `O=C1NC(=S)N(c2ccc(F)cc2)C(=O)C1=Cc1ccco1` [(5E)-1-(4-fluorophenyl)-5-(2-furanylmethylidene)-2-sulfanylidene-1,3-diazinane-4,6-dione] was tested. Which EC50 did it give?
Answer: 10.4 µM

Question: How did the EC50 turn out when `[H]/N=C1/OC23CCCCC2C(C#N)(C#N)C1(C#N)C(c1ccc(OC)cc1)O3` (stereo unspecified) [MLS000554241] was run?
Answer: 12.4 µM

Question: How did the EC50 turn out when `COc1ccc(C2C3=C(CCCC3=O)OC(=N)C2C#N)c(OC)c1OC` (stereo unspecified) [2-Amino-5-oxo-4-(2,3,4-trimethoxy-phenyl)-5,6,7,8-tetrahydro-4H-chromene-3-carbonitrile] was run?
Answer: > 300 µM

Question: Which EC50 does the source give for `CCOc1cc(C2C(C(C)=O)=C(C)OC(=N)C2C#N)cc(Br)c1O` (stereo unspecified) [2-azanyl-4-(3-bromanyl-5-ethoxy-4-oxidanyl-phenyl)-5-ethanoyl-6-methyl-4H-pyran-3-carbonitrile] here?
Answer: 12.3 µM

Question: How did the EC50 turn out when `COc1cc(OC)c(C2C3=C(CC(C)(C)CC3=O)OC(=N)C2C#N)cc1OC` (stereo unspecified) [SMR000054706] was run?
Answer: > 300 µM

Question: How did the EC50 turn out when `COc1ccc(C2C(C(C)=O)=C(C)N=c3sc(=Cc4cc(C)n(C)c4C)c(=O)n32)c(OC)c1` (stereo unspecified) was run?
Answer: 10.9 µM

Question: How did the EC50 turn out when `CN(C)[C@@H]1C(=O)C(C(N)=O)C(=O)[C@@]2(O)C(=O)C3C(=O)c4c(O)cccc4[C@@](C)(O)C3C(O)C12` (stereo partly specified) [SMR000875333] was run?
Answer: 54.1 µM

Question: How did the EC50 turn out when `Cn1c(=O)[nH]c(=O)c2c1nc(N=NC=C(Br)Cc1ccccc1)n2CCO` [SMR000436442] was run?
Answer: 206 µM

Question: `COc1cc2c(cc1C1C3=C(CC(C)(C)CC3=O)OC(=N)C1C#N)OCO2` (stereo unspecified) [MLS001208406] was tested. Which EC50 did it give?
Answer: > 300 µM

Question: For `O=C1CCCC2=Nc3cc(Cl)ccc3SC12` (stereo unspecified) [MLS000333002], which EC50 is on record?
Answer: 18.4 µM

Question: Which EC50 does the source give for `Cc1nnc(N2C(=O)C(=O)C(C(=O)c3ccco3)C2c2ccc(C(C)(C)C)cc2)s1` (stereo unspecified) [2-(4-tert-butylphenyl)-3-(furan-2-carbonyl)-4-hydroxy-1-(5-methyl-1,3,4-thiadiazol-2-yl)-2H-pyrrol-5-one] here?
Answer: 24.9 µM

Question: Which EC50 does the source give for `CC1(C)CC(=O)C2Sc3ccccc3N=C2C1` (stereo unspecified) [2,2-Dimethyl-2,3-dihydro-1H,10H-phenothiazin-4-one] here?
Answer: 43.9 µM

Question: With `CC1=C(C#N)C(=O)N(C)C(=O)C1=CNNc1ccc(F)cc1` [MLS000702698] as the molecule, how does the EC50 read?
Answer: > 300 µM

Question: How did the EC50 turn out when `COc1cc(OC)c(C2C3=C(CC(C)CC3=O)OC(=N)C2C#N)cc1OC` (stereo unspecified) [2-amino-4-asaryl-5-keto-7-methyl-4,6,7,8-tetrahydrochromene-3-carbonitrile] was run?
Answer: > 300 µM

Question: For `O=C1NC(=O)N(Cc2ccccc2)C(=O)C1=CNc1ccc(CN2CCOCC2)cc1` [(5E)-1-benzyl-5-[[4-(morpholin-4-ylmethyl)anilino]methylidene]-1,3-diazinane-2,4,6-trione], which EC50 is on record?
Answer: > 300 µM

Question: With `CSc1nnc(N2C(=O)C(=O)C(C(=O)c3ccco3)C2c2ccccc2)s1` (stereo unspecified) [3-(furan-2-carbonyl)-4-hydroxy-1-(5-methylsulfanyl-1,3,4-thiadiazol-2-yl)-2-phenyl-2H-pyrrol-5-one] as the molecule, how does the EC50 read?
Answer: > 300 µM

Question: Which EC50 does the source give for `CC1=C(C#N)C(=O)N(C)C(=O)C1=CN` [(5Z)-5-(aminomethylidene)-1,4-dimethyl-2,6-dioxopyridine-3-carbonitrile] here?
Answer: > 300 µM

Question: With `Cc1ccc(C(=O)C2C(=O)C(=O)N(Cc3ccco3)C2c2cccc(Br)c2)o1` (stereo unspecified) [2-(3-bromophenyl)-1-(2-furanylmethyl)-4-hydroxy-3-[(5-methyl-2-furanyl)-oxomethyl]-2H-pyrrol-5-one] as the molecule, how does the EC50 read?
Answer: > 300 µM

Question: Which EC50 does the source give for `O=CC(C=Nc1ccccn1)c1nc2ccccc2o1` (stereo unspecified) [2-Benzooxazol-2-yl-3-(pyridin-2-ylamino)-propenal] here?
Answer: > 300 µM

Question: `C=CCOc1cccc(C2C(C(=O)c3ccc(C)o3)C(=O)C(=O)N2c2nccs2)c1` (stereo unspecified) [3-(5-methylfuran-2-yl)carbonyl-4-oxidanyl-2-(3-prop-2-enoxyphenyl)-1-(1,3-thiazol-2-yl)-2H-pyrrol-5-one] was tested. Which EC50 did it give?
Answer: > 300 µM

Question: `C/N=C1/S/C(=C\c2ccc(N3CCCC3)c(F)c2)C(=O)N1C` [(5Z)-5-(3-fluoro-4-pyrrolidino-benzylidene)-3-methyl-2-methylimino-thiazolidin-4-one] was tested. Which EC50 did it give?
Answer: 5.9 µM

Question: How did the EC50 turn out when `Cc1ccc(N=CCC(=O)c2sc(-c3ccccc3)nc2C)cc1` [(E)-1-(4-methyl-2-phenyl-1,3-thiazol-5-yl)-3-(4-toluidino)-2-propen-1-one] was run?
Answer: 46.4 µM

Question: With `COc1cc(C2C3=C(CC(C)(C)CC3=O)OC(=N)C2C#N)cc2c1OCO2` (stereo unspecified) as the molecule, how does the EC50 read?
Answer: > 300 µM

Question: `c1ccc(C2=Nc3nnnn3C(c3cccs3)C2)cc1` (stereo unspecified) [5-Phenyl-7-thiophen-2-yl-4,7-dihydro-tetrazolo[1,5-a]pyrimidine] was tested. Which EC50 did it give?
Answer: > 300 µM

Question: For `COc1cc(CN=Nc2[nH]c(=O)nnc2C)ccc1O` [5-[2-[(E)-(3-methoxy-4-oxocyclohexa-2,5-dien-1-ylidene)methyl]hydrazinyl]-6-methyl-2H-1,2,4-triazin-3-one], which EC50 is on record?
Answer: 56.8 µM

Question: How did the EC50 turn out when `O=C1C([N+](=O)[O-])=CC(Cl)=CC1/C=N/NC(=O)C(O)(c1ccccc1)c1ccccc1` (stereo unspecified) [N''''-[(E)-(3-chloro-5-nitro-6-oxocyclohexa-2,4-dien-1-ylidene)methyl]-2-hydroxy-2,2-diphenylacetohydrazide] was run?
Answer: > 300 µM

Question: Which EC50 does the source give for `O=CC(C=Nc1ccccn1)c1nc2cc(Cl)ccc2o1` (stereo unspecified) [(Z)-2-(5-chloranyl-1,3-benzoxazol-2-yl)-3-(pyridin-2-ylamino)prop-2-enal] here?
Answer: 67.7 µM

Question: Which EC50 does the source give for `COc1ccccc1OCC(=O)NN=Cc1c(O)ccc2ccccc12` here?
Answer: 228 µM

Question: How did the EC50 turn out when `Cc1ccc(NNC2=Nc3ccccc3C2=O)cc1` [2-[(4-methylphenyl)hydrazo]-3-indolone] was run?
Answer: 16 µM

Question: `CCOC(=O)N1CCC2=C(C#N)C(=N)C(C#N)(C#N)[C@H](c3ccsc3)[C@H]2C1` [(8R,8aR)-6-amino-5,7,7-tricyano-8-(3-thienyl)-1,3,8,8a-tetrahydroisoquinoline-2-carboxylic acid ethyl ester] was tested. Which EC50 did it give?
Answer: 78.8 µM

Question: Which EC50 does the source give for `Cc1c(C(=O)O)cccc1-n1c(C)cc(CN=Nc2ccc([N+](=O)[O-])cn2)c1C` here?
Answer: > 300 µM

Question: How did the EC50 turn out when `CCN(CC)CCNC=C1C(=O)NC(=O)N(Cc2ccccc2)C1=O` [(5Z)-1-benzyl-5-[[2-(diethylamino)ethylamino]methylene]barbituric acid] was run?
Answer: > 300 µM

Question: With `Nc1c(-c2nc3ccccc3[nH]2)c(O)cn1-c1ccc(CC(=O)O)cc1` [MLS000565528] as the molecule, how does the EC50 read?
Answer: 5.25 µM

Question: How did the EC50 turn out when `C=CCN1C(=O)NC(=O)C(=CCC=Nc2ccccc2)C1=O` [(5Z)-5-[(E)-3-phenylazanylprop-2-enylidene]-1-prop-2-enyl-1,3-diazinane-2,4,6-trione] was run?
Answer: > 300 µM

Question: `Brc1ccc(C2=Nc3ncnn3C(c3ccco3)C2)cc1` (stereo unspecified) was tested. Which EC50 did it give?
Answer: > 300 µM

Question: For `C=CCOc1ccc(C2C(C(=O)c3cccs3)C(=O)C(=O)N2c2nnc(C)s2)cc1` (stereo unspecified) [1-(5-methyl-1,3,4-thiadiazol-2-yl)-4-oxidanyl-2-(4-prop-2-enoxyphenyl)-3-thiophen-2-ylcarbonyl-2H-pyrrol-5-one], which EC50 is on record?
Answer: 10.8 µM

Question: `COc1ccccc1N1C(=O)C(=Nc2ccccc2O)C(Cl)C1=O` (stereo unspecified) [3-chloranyl-4-[(2-hydroxyphenyl)amino]-1-(2-methoxyphenyl)pyrrole-2,5-dione] was tested. Which EC50 did it give?
Answer: 34.7 µM

Question: `COc1cccc(CN=Nc2ncnc(N)c2[N+](=O)[O-])c1OC` [(6-amino-5-nitro-pyrimidin-4-yl)-[(2,3-dimethoxybenzylidene)amino]amine] was tested. Which EC50 did it give?
Answer: 18.4 µM

Question: With `Cc1cc(CN=Nc2ccc([N+](=O)[O-])cn2)c(C)n1-c1cccc(C(=O)O)c1` [3-[2,5-dimethyl-3-[[(5-nitro-2-pyridinyl)hydrazinylidene]methyl]-1-pyrrolyl]benzoic acid] as the molecule, how does the EC50 read?
Answer: > 300 µM
